The values that follow are results of earlier work, collected in publication PMC6472032 (Marine Drugs, 2019).

For this data set the following is noted: in vivo; cited from earlier work.

For the substance desmopressin, the mean terminal half-life is listed as 3.7 h.
